# Legend:
# certain yeasts = assay: Antimicrobial activity, broth dilution method (summary); format: cell-based
# Procedure: (§1) Antimicrobial activity of WF11605 was determined by broth dilution method in a conventional manner.
# [1] = test system: Cryptococcus albidus AHU-3922; assay: Antimicrobial activity, broth dilution method; format: cell-based; details: Naganishia albida, AHU3922; Sabouraud 30° C. 20 hrs
# Procedure: as §1
# (§2) ^1 Sabuoraud 30° C. 20 hrs
# Candida krusei OUT-6007 = assay: Antimicrobial activity, broth dilution method; format: cell-based; details: Pichia kudriavzevii, OUT6007; Sabouraud 30° C. 20 hrs
# Procedure: as §1, §2
# [2] = test system: Torulopsis colliculsa IAM-4426; assay: Antimicrobial activity, broth dilution method; format: cell-based; details: Sabouraud 30° C. 20 hrs
# Procedure: as §1, §2
# Candida albicans FP633 = assay: Antimicrobial activity, broth dilution method; format: cell-based; details: Sabouraud 30° C. 20 hrs
# Procedure: as §1, §2
# Candida utilis = assay: Antimicrobial activity, broth dilution method; format: cell-based; details: Williopsis jadinii; Sabouraud 30° C. 20 hrs
# Procedure: as §1, §2
# Solubility = format: physicochemical; details: free form
# [3] = target: T1, ^3 H-LTB4 receptor (rabbit PMNLs) (Oryctolagus cuniculus, UniProt G1U4T1); assay: Inhibition of binding of ^3 H-LTB4 to freeze-thawed PMNLs (^3 H-LTB4 receptor assay); details: 4° C., 30 min; for ^3 H-LTB4 specific binding: control 1684 dpm
# T1 construct: endogenous in cells; host or cells: freeze-thawed polymorphonuclear leukocytes (PMNLs) from peritoneal exudate of rabbit (glycogen-elicited, male Japanese White rabbits)
# Procedure: PMNLs collected from the peritoneal exudate of rabbit were suspended at a concentration of 5×10^6 /ml in Eagle's MEM, stored at -20° C. and used within 2 weeks. On use, the PMNLs were thawed at room temperature and kept at 4° C.
# ^3 H-LTB4 ((5,6,8,9,11,14,15 (n)-^3 H)Leukotriene B4, 20 μCi/ml, Amersham Co., Japan) was diluted 20-fold with 3×10^-9M nonradioactive LTB4 in Hanks' balanced salt solution containing 10 mM N-(2-Hydroxyethyl)-piperazine-N'-2-ethanesulfonic acid, pH 7.4 (HBSS-HEPES). Fifteen microlitter of the solution was added to 60 μl HBSS-HEPES at 4° C. and then 25 μl of competitor or corresponding vehicle and 150 μl of freeze-thrawed cells (5×10^6 /ml) were also added, followed by vigorous mixing and allowing to stand for 30 min at 4° C. The resultant mixture was immediately filtered through Whatman GF/C glass filter to separate free and bound ^3 H-LTB4 using cell harvester (BRANDELL M-24R 5/8). The filter paper was quickly washed 5 times by 150 μl of cold HBSS-HEPES, dried, cut off and placed in a scintillation vial. To the vial was added 3 ml of toluene-based scintillation fluid and then the radioactivity was counted. All assay were carried out in duplicate. Specific binding defined as total binding minus non specific binding (with 0.1 μM LTB4), was about 60% of total binding.
# [4] = test system: LTB4-induced degranulation in rabbit PMNLs; assay: LTB4-induced degranulation (beta-glucuronidase release) of rabbit PMNLs; format: cell-based; details: Oryctolagus cuniculus, PMNL, LTB4 7×10^-8 M, Cytochalasin B 10^-5 M
# Procedure: (§3) PMNLs were collected from the peritoneal exudates of male Japanese White rabbits. At 16 hr after the injection of 0.1% glycogen (400 ml/animal, i.p.), the peritoneal cells were collected and washed with Eagle's minimum essential medium (MEM) and resuspended in the same medium. Over 90% of the cells were judged as PMNLs after Giemsa staining .
# (§4) PMNL suspension (5×10^6 cells/ml) was incubated with test substance or vehicle at 37° C. for 5 min in plastic tubes. Leukotriene B4 (LTB4, 7×10^-8 M, Cayman Chemical Co.,), […] (FMLP, 7×10^-10 M, Sigma) or platelet activating factor (PAF, 7×10^-7 M, Sigma) together with Cytochalasin B (10^-5 M, Sigma) were added and then incubated for 5 min at 37° C. Incubation was terminated by transfer to an ice bath followed by rapid centrifugation. The cell-free supernatants were subsequently assayed for the activity of beta-glucuronidase.
# (§5) The assay mixture consisted of 300 μl of acetate buffer (0.1M, pH 4.6), 100 μl of sample (supernatant obtained above) and 50 μl of methylumbelliferyl-beta-D-glucuronide (1 mM, NAKARAI CHEMICAL Co.,) as substrate. The reaction was started by addition of the substrate and terminated after 15 min at 37° C. by the addition of 2 ml glycine buffer (0.1M, pH 10.32). The fluorescence (excitation; 365 nm, emission; 455 nm) of each sample was determined.
# (§6) The results are expressed as percent of total beta-glucuronidase released where total are the amount of the enzyme in the cells released by 0.1% Triton X-100.
# [5] = test system: PAF-induced degranulation in rabbit PMNLs; assay: PAF-induced degranulation (beta-glucuronidase release) of rabbit PMNLs; format: cell-based; details: Oryctolagus cuniculus, PMNL; PAF 7×10^-7 M, Cytochalasin B 10^-5 M; read-out: 50% inhibitory concentration (IC50), PAF-induced degranulation
# Procedure: as §3, §4
# as §5, with “The reaction was started by addition of the substrate and terminated after 15 min at 37° C. by the addition of 2 ml glycine buffer (0.1M, pH 10.32).” left out
# as §6
# [6] = Acute toxicity, intraperitoneal, mice; details: mouse, in vivo, ip, female, 4 weeks old
# Text: The WF11605 was intraperitoneally given to mice (female, 4 weeks old). From the test results, LD50 of WF11605 was more than 1 g/kg.
# Mucor rouxianus Wehmer = assay: Antimicrobial activity, broth dilution method; format: cell-based; details: Sabouraud 25° C. 40 hrs
# Procedure: as §1
# ^2 Sabouraud 25° C. 40 hrs
# [7] = test system: FMLP-induced degranulation in rabbit PMNLs; assay: FMLP-induced degranulation (beta-glucuronidase release) of rabbit PMNLs; format: cell-based; details: Oryctolagus cuniculus, PMNL; FMLP 7×10^-10 M, Cytochalasin B 10^-5 M; read-out: 50% inhibitory concentration (IC50), FMLP-induced degranulation
# Procedure: as §3, §4
# as §5, with “The reaction was started by addition of the substrate and terminated after 15 min at 37° C. by the addition of 2 ml glycine buffer (0.1M, pH 10.32).” left out
# as §6
# T1 sequence (G1U4T1 1-363): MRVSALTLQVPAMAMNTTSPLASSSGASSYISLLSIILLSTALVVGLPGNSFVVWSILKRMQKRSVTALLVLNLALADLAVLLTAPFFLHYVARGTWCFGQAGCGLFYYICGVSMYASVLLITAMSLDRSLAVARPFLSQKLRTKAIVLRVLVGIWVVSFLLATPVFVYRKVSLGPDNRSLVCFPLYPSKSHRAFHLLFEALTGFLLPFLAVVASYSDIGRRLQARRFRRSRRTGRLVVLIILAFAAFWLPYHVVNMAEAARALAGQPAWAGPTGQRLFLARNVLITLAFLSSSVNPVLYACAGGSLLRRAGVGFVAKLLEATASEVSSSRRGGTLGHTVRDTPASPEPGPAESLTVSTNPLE
smiles,measurement,setting,value
CC(=O)OC1CC2(C)C3=C(CCC2C(C)(C)C1OC1OC(CO)C(O)C(O)C1O)C1(C)CC(=O)C(C)(C(C)C(C)C)C(C(=O)O)C1(C)CC3 (stereo not shown) [WF11605],Antimicrobial activity,certain yeasts,has antimicrobial activity against certain yeasts
same,MIC,[1],100 µg/mL
same,MIC,Candida krusei OUT-6007,25 µg/mL
same,MIC,[2],50 µg/mL
same,MIC,Candida albicans FP633,25 µg/mL
same,MIC,Candida utilis,50 µg/mL
same,Solubility,"Solubility; H2 O, methanol, ethanol",sparingly soluble
same,Solubility,"Solubility; chloroform, ether",insoluble
same,^3 H-LTB4 specific binding,[3]; WF11605 7 × 10^-6 M,596 dpm
same,inhibition at 7 µM,"[3]; WF11605 7 × 10^-6 M, read-out: inhibition of 3H-LTB4 specific binding",64.6%
same,^3 H-LTB4 specific binding,[3]; WF11605 7 × 10^-7 M,1264 dpm
same,inhibition at 0.7 µM,"[3]; WF11605 7 × 10^-7 M, read-out: inhibition of 3H-LTB4 specific binding",24.9%
same,IC50,"[4]; read-out: 50% inhibitory concentration (IC50), LTB4-induced degranulation",3 µM
same,inhibition at 100 µM,"[4]; WF11605 10^-4 M, read-out: Inhibition of total beta-glucuronidase release",93.6%
same,inhibition at 10 µM,"[4]; WF11605 10^-5 M, read-out: Inhibition of total beta-glucuronidase release",66.9%
same,inhibition at 1 µM,"[4]; WF11605 10^-6 M, read-out: Inhibition of total beta-glucuronidase release",30.3%
same,inhibition at 0.1 µM,"[4]; WF11605 10^-7 M, read-out: Inhibition of total beta-glucuronidase release",17.5%
same,inhibition at 0.01 µM,"[4]; WF11605 10^-8 M, read-out: Inhibition of total beta-glucuronidase release",12.2%
same,IC50,[5],> 100 µM
same,LD50,[6],> 1000 mg/kg
same,MIC,Mucor rouxianus Wehmer,200 µg/mL
same,IC50,[7],> 100 µM
